Measurements published in PubChem BioAssay (NCI).
Where “and” joins values, the source holds several entries; their conditions need not be identical. Identical values can stand only once.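 Growth conditions: 96-well plates. Treatment: test compound, 48 hours, 5 concentrations. Analysis: linear interpolation between bracketing concentrations; unreached endpoints set to highest concentration. The concentration for 50% growth inhibition is given as GI50. The concentration for full growth arrest is given as TGI.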

Tests used:
Experiment in all cases: NCI anticancer screen, dose series, 48 h
UACC-257 melanoma = system: UACC-257 melanoma
MALME-3M melanoma = system: MALME-3M melanoma
NCI-H226 lung = system: NCI-H226 lung
SW-620 colon = system: SW-620 colon
MOLT-4 leukemia = system: MOLT-4 leukemia
TK-10 renal = system: TK-10 renal
HCC-2998 colon = system: HCC-2998 colon
M14 melanoma = system: M14 melanoma
SR leukemia = system: SR leukemia
RXF 393 renal = system: RXF 393 renal

Row | Compound | TGI (UACC-257 melanoma) | TGI (MALME-3M melanoma) [µM] | TGI (NCI-H226 lung) [µM] | TGI (SW-620 colon) [µM] | TGI (MOLT-4 leukemia) [µM] | TGI (TK-10 renal) | TGI (HCC-2998 colon) | TGI (M14 melanoma) [µM] | TGI (SR leukemia) [µM] | TGI (RXF 393 renal) | GI50 (UACC-257 melanoma) [µM] | GI50 (MALME-3M melanoma) [µM] | GI50 (SW-620 colon) [µM] | GI50 (MOLT-4 leukemia) [µM] | GI50 (TK-10 renal) [µM] | GI50 (HCC-2998 colon) [µM] | GI50 (M14 melanoma) [µM] | GI50 (RXF 393 renal) [µM] | GI50 (NCI-H226 lung) [µM]
1 | CC(Sc1ccccc1)C(CO)(CO)[N+](=O)[O-] (centres undefined) | 30.2 µM | 38.7 | 33 | 28.4 | 19.3 | 33.7 µM | 31.5 µM | 32.9 | 5.72 | 31.3 µM | – | – | – | – | – | – | – | – | –
2 | O=C1c2cc3c(cc2-c2c1c1ccc(Cl)cc1c(=O)n2C[C@H](O)[C@@H](O)[C@H](O)CO)OCO3 | 0.396 µM | 0.505 | – | 0.325 | 12.5 | 1.58 µM | 0.479 µM | 10.1 | – | 0.258 µM | 0.0771 | 0.0737 | 0.0163 | < 0.01 | 0.271 | 0.0638 | 0.0292 | 0.0536 | –
3 | O=C(O)C(CSC(c1ccccc1)(c1ccccc1)c1ccccc1)N=Cc1cccs1 (centres undefined) | > 100 µM | > 69.5 | > 96.7 | > 100 | > 75.7 | > 100 µM | 27.7 µM | 5.11 | > 100 | > 19.6 µM | – | – | – | – | – | – | – | – | –
4 | O=S1(=O)OC(c2ccc(O)cc2)(c2ccc(O)cc2)c2ccccc21 | > 100 µM | > 100 | > 100 | > 100 | > 100 | > 100 µM | > 100 µM | > 100 | – | > 100 µM | – | – | – | – | – | – | – | – | –
5 | N#CC(c1ccccc1)N1CCCN(C(C#N)c2ccccc2)C1c1ccccc1O (centres undefined) | > 100 µM | > 100 | > 100 | > 100 | > 100 | > 100 µM | > 100 µM | > 100 | > 100 | > 100 µM | – | – | – | – | – | – | – | – | –
6 | Cc1cc(O)c(C(C)C)cc1CN1CCCCC1 | > 100 µM | > 100 | > 100 | > 100 | > 100 | > 100 µM | > 100 µM | > 100 | – | > 100 µM | – | – | – | – | – | – | – | – | –
7 | Clc1ccc(Nc2nc(Cl)c3[nH]cnc3n2)cc1Cl | 83.3 µM | > 100 | > 100 | > 100 | 61.3 | > 100 µM | 31.1 µM | > 100 | 55.7 | 81.2 µM | – | – | – | – | – | – | – | – | –
8 | CN(C)CCn1c(=O)c2ccc3c4c(nn3CCN(C)C)c3cc(N)ccc3n(c1=O)c24 | 0.433 µM | 0.257 | 0.759 | 1.87 | > 100 | 3.8 µM | 1.04 µM | 0.18 | > 42.5 | 0.173 µM | – | – | – | – | – | – | – | – | –
9 | O=S(=O)(O)c1cccc2c(N=Nc3c(O)ccc4ccccc34)cccc12 | > 100 µM | > 100 | > 100 | > 100 | > 100 | > 100 µM | – | > 100 | > 100 | > 100 µM | – | – | – | – | – | – | – | – | –
10 | N[C@H]1CCN(c2c(F)cc3c(=O)c(C(=O)O)cn4c3c2Oc2cc3c(ccc5ccccc53)cc2-4)C1 | > 100 µM | > 100 | 58.5 | > 100 | > 100 | > 100 µM | 6.82 µM | > 100 | > 100 | > 100 µM | – | – | – | – | – | – | – | – | –
11 | CC[C@@]1(O)C(=O)OCc2c1cc1n(c2=O)Cc2c-1nc1ccc(O)cc1c2CC[Si](C)(C)C | 0.136 µM and 0.0447 µM | 1.41 | – | > 100 | 0.00221 | 0.693 µM and 0.749 µM | 0.0641 µM and 0.0601 µM | 0.0151 | < 0.001 | 0.0494 µM and 0.0625 µM | – | – | – | – | – | – | – | – | < 0.001
12 | COc1ccc(/C=C(\C#N)c2nc(N)nc(N3N=C(C)CC3(C)C)n2)c(O)c1 | 59.1 µM | 31.7 | 35.9 | – | 34.1 | 77.7 µM | 38.2 µM | 35.6 | 35.7 | 33.4 µM | – | – | – | – | – | – | – | – | –
13 | CC(=O)N(C)c1ccc2c(ccc[n+]2[O-])c1[N+](=O)[O-] | > 100 µM | > 100 | > 100 | > 100 | > 100 | > 100 µM | > 100 µM | > 100 | – | > 100 µM | – | – | – | – | – | – | – | – | –
14 | CC1(C)CCC2(C(=O)OC3OC(CO)C(O)C(O)C3O)CCC3(C)C(=CCC4C5(C)CCC(OC6OC(CO)C(O)C(O)C6O)C(C)(C)C5CCC43C)C2C1 (centres undefined) | > 25 µM | > 25 | > 25 | > 25 | 13.7 | > 25 µM | 9.83 µM | > 25 | 10.7 | > 25 µM | – | – | – | – | – | – | – | – | –
15 | C[C@]12CCC(=O)C=C1CC[C@@H]1[C@@H]2[C@@H](O)C[C@@]2(C)[C@H]1CC[C@]2(O)C(=O)CO | > 100 µM | > 100 | > 100 | > 100 | > 100 | > 100 µM | > 100 µM | > 100 | > 100 | > 100 µM | – | – | – | – | – | – | – | – | –
16 | Nc1nc(N)c2c(n1)NC(c1ccccc1)CC(/C=C/c1ccc(Cl)cc1)=N2 (centres undefined) | 7.78 µM | 32.7 | 27.7 | 26.8 | 12.6 | 8.64 µM | – | 28.3 | – | 16.7 µM | – | – | – | – | – | – | – | – | –
